Test results taken from PubChem BioAssay AID1963425 (Molecular Pharmacology Branch, DTP, NCI, 2024).

Tested on: 323965-272-R-J2-PDC complex spheroid growth, % test/control
Assay: Anticancer human tumor 323965-272-R-J2-PDC patient-derived pancreatic carcinoma cell line growth inhibition [Asc]
Conditions: for IC50: curve of first compound; for viability, T/C: stronger effect = lower value
Procedure, shortened: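 Spheroid model: tumor line + HUVEC + hMSC. Single agents and combinations; top conc. at/near clinical Cmax (10 microM if undetermined), half-log dilutions. DMSO stocks at 800-fold test concentration.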

[1] = second compound 0.00316 µM, first compound 0.0316 µM
[2] = second compound 0.00316 µM, first compound 0.1 µM
[3] = second compound 0.01 µM, first compound 0.0316 µM
[4] = second compound 0.01 µM, first compound 0.1 µM
[5] = second compound 0.0316 µM, first compound 0.0316 µM
[6] = second compound 0.0316 µM, first compound 0.1 µM
[7] = second compound 0.1 µM, first compound 0.0316 µM
[8] = second compound 0.1 µM, first compound 0.1 µM
[9] = second compound 0.316 µM, first compound 0.0316 µM
[10] = second compound 0.316 µM, first compound 0.1 µM
[11] = second compound 1 µM, first compound 0.0316 µM
[12] = second compound 1 µM, first compound 0.1 µM
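Also: compound exposure lasted 7 days starting three days after spheroid seeding.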
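For viability, T/C in this document: 100% = DMSO vehicle control wells with viability set relative to vehicle.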

Question: Which results are given for `Cc1nc(N2CCC3(CC2)COC(C)C3N)c(CO)nc1Sc1ccnc(N)c1Cl` (stereo unspecified) + CCN1C(C(=O)NC23CCC(C(=O)O)(CC2)CC3)C(c2cccc(Cl)c2F)C2(C(=O)Nc3cc(Cl)ccc32)C12CCCCC2?
Answer: IC50 (second compound 0.00949 µM): 1560 nM; IC50 (second compound 0.03 µM): > 3000 nM; IC50 (second compound 0.0949 µM): > 3000 nM; IC50 (second compound 0.3 µM): 1700 nM; IC50 (second compound 0.949 µM): 1640 nM; IC50 (second compound 3 µM): 929 nM; viability, T/C (second compound 0.00949 µM, first compound 0.00949 µM): 107%; viability, T/C (second compound 0.00949 µM, first compound 0.03 µM): 89%; viability, T/C (second compound 0.00949 µM, first compound 0.0949 µM): 85.4%; viability, T/C (second compound 0.00949 µM, first compound 0.3 µM): 62.7%; viability, T/C (second compound 0.00949 µM, first compound 0.949 µM): 57.3%; viability, T/C (second compound 0.00949 µM, first compound 3 µM): 42.9%; viability, T/C (second compound 0.03 µM, first compound 0.00949 µM): 104%; viability, T/C (second compound 0.03 µM, first compound 0.03 µM): 91.8%; viability, T/C (second compound 0.03 µM, first compound 0.0949 µM): 80.4%; viability, T/C (second compound 0.03 µM, first compound 0.3 µM): 67.8%; viability, T/C (second compound 0.03 µM, first compound 0.949 µM): 59%; viability, T/C (second compound 0.03 µM, first compound 3 µM): 50.4%; viability, T/C (second compound 0.0949 µM, first compound 0.00949 µM): 109%; viability, T/C (second compound 0.0949 µM, first compound 0.03 µM): 84.9%; viability, T/C (second compound 0.0949 µM, first compound 0.0949 µM): 86.1%; viability, T/C (second compound 0.0949 µM, first compound 0.3 µM): 65.3%; viability, T/C (second compound 0.0949 µM, first compound 0.949 µM): 61.7%; viability, T/C (second compound 0.0949 µM, first compound 3 µM): 51.2%; viability, T/C (second compound 0.3 µM, first compound 0.00949 µM): 102%; viability, T/C (second compound 0.3 µM, first compound 0.03 µM): 86.3%; viability, T/C (second compound 0.3 µM, first compound 0.0949 µM): 82.7%; viability, T/C (second compound 0.3 µM, first compound 0.3 µM): 68.6%; viability, T/C (second compound 0.3 µM, first compound 0.949 µM): 54.2%; viability, T/C (second compound 0.3 µM, first compound 3 µM): 44.6%; viability, T/C (second compound 0.949 µM, first compound 0.00949 µM): 105%; viability, T/C (second compound 0.949 µM, first compound 0.03 µM): 95.8%; viability, T/C (second compound 0.949 µM, first compound 0.0949 µM): 88.3%; viability, T/C (second compound 0.949 µM, first compound 0.3 µM): 63.6%; viability, T/C (second compound 0.949 µM, first compound 0.949 µM): 57.8%; viability, T/C (second compound 0.949 µM, first compound 3 µM): 44.2%; viability, T/C (second compound 3 µM, first compound 0.00949 µM): 91.2%; viability, T/C (second compound 3 µM, first compound 0.03 µM): 83.3%; viability, T/C (second compound 3 µM, first compound 0.0949 µM): 71.7%; viability, T/C (second compound 3 µM, first compound 0.3 µM): 60%; viability, T/C (second compound 3 µM, first compound 0.949 µM): 53.6%; viability, T/C (second compound 3 µM, first compound 3 µM): 35.4%

Question: What does the source list for `Cn1ncnc1[C@H]1c2n[nH]c(=O)c3cc(F)cc(c23)N[C@@H]1c1ccc(F)cc1` + CNC(C)C(=O)NC1CN(S(=O)(=O)c2cccc(S(=O)(=O)N3CCC4CCC(C(=O)NC(c5ccccc5)c5ccccc5)N4C(=O)C(NC(=O)C(C)NC)C3)c2)CCC2CCC(C(=O)NC(c3ccccc3)c3ccccc3)N2C1=O?
Answer: IC50 (second compound 0.00316 µM): < 0.316 nM; IC50 (second compound 0.01 µM): > 100 nM; IC50 (second compound 0.0316 µM): > 100 nM; IC50 (second compound 0.1 µM): > 100 nM; IC50 (second compound 0.316 µM): > 100 nM; IC50 (second compound 1 µM): > 100 nM; viability, T/C (second compound 0.00316 µM, first compound 0.000316 µM): 49.4%; viability, T/C (second compound 0.00316 µM, first compound 0.001 µM): 49.2%; viability, T/C (second compound 0.00316 µM, first compound 0.00316 µM): 46.2%; viability, T/C (second compound 0.00316 µM, first compound 0.01 µM): 47.6%; viability, T/C [1]: 49.5%; viability, T/C [2]: 47.7%; viability, T/C (second compound 0.01 µM, first compound 0.000316 µM): 119%; viability, T/C (second compound 0.01 µM, first compound 0.001 µM): 92.3%; viability, T/C (second compound 0.01 µM, first compound 0.00316 µM): 97.3%; viability, T/C (second compound 0.01 µM, first compound 0.01 µM): 90.1%; viability, T/C [3]: 87.8%; viability, T/C [4]: 85.5%; viability, T/C (second compound 0.0316 µM, first compound 0.000316 µM): 107%; viability, T/C (second compound 0.0316 µM, first compound 0.001 µM): 93.8%; viability, T/C (second compound 0.0316 µM, first compound 0.00316 µM): 87.6%; viability, T/C (second compound 0.0316 µM, first compound 0.01 µM): 105%; viability, T/C [5]: 92%; viability, T/C [6]: 91%; viability, T/C (second compound 0.1 µM, first compound 0.000316 µM): 94.3%; viability, T/C (second compound 0.1 µM, first compound 0.001 µM): 106%; viability, T/C (second compound 0.1 µM, first compound 0.00316 µM): 112%; viability, T/C (second compound 0.1 µM, first compound 0.01 µM): 97.6%; viability, T/C [7]: 84%; viability, T/C [8]: 91.7%; viability, T/C (second compound 0.316 µM, first compound 0.000316 µM): 103%; viability, T/C (second compound 0.316 µM, first compound 0.001 µM): 89.8%; viability, T/C (second compound 0.316 µM, first compound 0.00316 µM): 101%; viability, T/C (second compound 0.316 µM, first compound 0.01 µM): 92.7%; viability, T/C [9]: 88.2%; viability, T/C [10]: 89%; viability, T/C (second compound 1 µM, first compound 0.000316 µM): 87.5%; viability, T/C (second compound 1 µM, first compound 0.001 µM): 90.7%; viability, T/C (second compound 1 µM, first compound 0.00316 µM): 94.4%; viability, T/C (second compound 1 µM, first compound 0.01 µM): 83.7%; viability, T/C [11]: 89.7%; viability, T/C [12]: 86.3%

Question: What does the source list for `O=C(c1cc(Cc2n[nH]c(=O)c3ccccc23)ccc1F)N1CCN(C(=O)C2CC2)CC1` + CNC(C)C(=O)NC1CN(S(=O)(=O)c2cccc(S(=O)(=O)N3CCC4CCC(C(=O)NC(c5ccccc5)c5ccccc5)N4C(=O)C(NC(=O)C(C)NC)C3)c2)CCC2CCC(C(=O)NC(c3ccccc3)c3ccccc3)N2C1=O?
Answer: IC50 (second compound 0.00316 µM): < 31.6 nM; IC50 (second compound 0.01 µM): > 10000 nM; IC50 (second compound 0.0316 µM): > 10000 nM; IC50 (second compound 0.1 µM): > 10000 nM; IC50 (second compound 0.316 µM): > 10000 nM; IC50 (second compound 1 µM): > 10000 nM; viability, T/C [1]: 43.1%; viability, T/C [2]: 45.3%; viability, T/C (second compound 0.00316 µM, first compound 0.316 µM): 41%; viability, T/C (second compound 0.00316 µM, first compound 1 µM): 47.4%; viability, T/C (second compound 0.00316 µM, first compound 3.16 µM): 44.6%; viability, T/C (second compound 0.00316 µM, first compound 10 µM): 36.6%; viability, T/C [3]: 99.4%; viability, T/C [4]: 101%; viability, T/C (second compound 0.01 µM, first compound 0.316 µM): 97.5%; viability, T/C (second compound 0.01 µM, first compound 1 µM): 94.5%; viability, T/C (second compound 0.01 µM, first compound 3.16 µM): 75.9%; viability, T/C (second compound 0.01 µM, first compound 10 µM): 72%; viability, T/C [5]: 101%; viability, T/C [6]: 99.4%; viability, T/C (second compound 0.0316 µM, first compound 0.316 µM): 100%; viability, T/C (second compound 0.0316 µM, first compound 1 µM): 105%; viability, T/C (second compound 0.0316 µM, first compound 3.16 µM): 102%; viability, T/C (second compound 0.0316 µM, first compound 10 µM): 70.7%; viability, T/C [7]: 92.6%; viability, T/C [8]: 91.9%; viability, T/C (second compound 0.1 µM, first compound 0.316 µM): 89.7%; viability, T/C (second compound 0.1 µM, first compound 1 µM): 99.3%; viability, T/C (second compound 0.1 µM, first compound 3.16 µM): 94.5%; viability, T/C (second compound 0.1 µM, first compound 10 µM): 71.9%; viability, T/C [9]: 93.4%; viability, T/C [10]: 89.1%; viability, T/C (second compound 0.316 µM, first compound 0.316 µM): 97.9%; viability, T/C (second compound 0.316 µM, first compound 1 µM): 89.7%; viability, T/C (second compound 0.316 µM, first compound 3.16 µM): 93.7%; viability, T/C (second compound 0.316 µM, first compound 10 µM): 80%; viability, T/C [11]: 94.5%; viability, T/C [12]: 87%; viability, T/C (second compound 1 µM, first compound 0.316 µM): 83.3%; viability, T/C (second compound 1 µM, first compound 1 µM): 93.1%; viability, T/C (second compound 1 µM, first compound 3.16 µM): 89.2%; viability, T/C (second compound 1 µM, first compound 10 µM): 68.3%
